Assay [1] relates to HT29 cells. As to the kind of experiment: RPM-FITC immunofluorescence staining of cultured cells (confocal microscopy). Type of assay: cell-based. The note with it: for localisation of peptide in HT29 cells: 100 uM, 1 hour. As to the method:
(§1) Cell Culture: HT29, HCT116, or a 50% mixture of HT29 and HCT116 cells were plated on glass slides (Nalge). Wells were incubated with 10 μM of RPM-FITC peptide for 45 minutes at 4° C. or 37° C. After washing with wash buffer, cells were blocked with 1% NGS, 0.1% BSA, 0.1% Triton-X100 in PBS. Following the blocking step, wells were incubated with the polyclonal p53 antibody, D10, (Santa Cruz) for 1 hour at room temperature. The wells were washed and incubated with the secondary antibodies GαFITC Alexa 488 (Molecular Probes) and GαMouse Alexa 647 (Molecular Probes) and the nuclear stain Topro-3 (Molecular Probes). Wells were washed and mounted using Pro-Long Anti-fade (Molecular Probes). Slides were analyzed by confocal microscopy.
The peptide then was tested to determine whether it was able to differentiate HT29 from HCT116 cells. In order to distinguish HT29 from HCT116 cells in our immunohistochemical assays, staining was carried out in the presence of the transcription factor, p53. Staining for the protein p53 is a way to visually discriminate HT29 from HCT116 cells, since p53 is mutated and accumulates in HT29 cells but is wild type in HCT116 cells and thus, is rapidly degraded. […] To test the ability of the fluorescein conjugated peptide (RPM-FITC) to preferentially bind HT29 cells, HT29 and HCT116 cells were stained with RPM-FITC. […] When a mixture of HT29 and HCT116 cells was incubated with RPM-FITC and concurrently analyzed for the presence of p53, cells with the highest level of p53 protein also bound RPM-FITC (FIG. 5A).
The ability of a molecule to translocate across the cell membrane is important for drug delivery. HT29 cells were incubated for 1 hour at either 4° C. or 37° C. in the presence of 100 uM RPM-FITC. After incubation, cells were washed, fixed with 2% paraformaldehyde, then incubated with an anti-FITC secondary antibody to amplify the fluorescence signal.

The subject of assay [2] is HCT116 cells. Described as above. Type of assay: cell-based. The note with it: 1 hour at 4° C. As to the method: as §1, with “Wells were incubated with 10 μM of RPM-FITC peptide for 45 minutes at 4° C. or 37° C.” left out
The peptide then was tested to determine whether it was able to differentiate HT29 from HCT116 cells. In order to distinguish HT29 from HCT116 cells in our immunohistochemical assays, staining was carried out in the presence of the transcription factor, p53. Staining for the protein p53 is a way to visually discriminate HT29 from HCT116 cells, since p53 is mutated and accumulates in HT29 cells but is wild type in HCT116 cells and thus, is rapidly degraded. […] When a mixture of HT29 and HCT116 cells was incubated with RPM-FITC and concurrently analyzed for the presence of p53, cells with the highest level of p53 protein also bound RPM-FITC (FIG. 5A).

Assay [3] relates to human colon tumor. In words: Peptide-binding assay on frozen tissue sections. The note with it: frozen sections, 4° C. Here is the method: (§2) A biopsy of sporadic colon adenocarcinoma, liver and lung sarcoma, and grossly uninvolved colon, liver, lung, and stomach were frozen in optimum cutting temperature (OCT) and […] cryostat sections placed on glass slides. Sections were stained with H&E and untreated adjacent sections were incubated with RPM-FITC. After incubating with RPM-FITC in binding buffer for 45 minutes at 4° C., slides were washed and mounted using Pro-Long Anti-Fade (Molecular Probes). Nuclei were visualized by a quick incubation with Topro-3 (Molecular Probes) present in the last wash. Samples were analyzed by confocal microscopy.

Assay [4] concerns grossly uninvolved normal colon. As to the kind of experiment: Peptide-binding assay on frozen tissue sections. On the set-up: species or system human. Here is the method: as §2
The subject of assay [5] is lung and liver cancer, grossly uninvolved lung, liver, and stomach. In words: Peptide-binding assay on frozen tissue sections. The note with it: cryostat sections. On the set-up: species or system human. As to the method: as §2
To determine whether RPM-FITC was able to bind cancers originated from tissues other than colon or to other normal tissues, a peptide-binding assay was performed on cryostat sections of lung and liver cancer, and grossly uninvolved lung, liver, and stomach. As a positive control, a section of colon tumor was stained in parallel with the other sections. […] Binding to HT29 Cells is Dependent on the Amino Acids, RPMC-C (SEQ ID NO: 136).

Entries after “also recorded” stand apart in the source; their conditions may differ. Ends that are not written are not given here.

On to “RPM-FITC: fluorescein conjugated peptide (RPM-FITC) (CPIEDRPMC; cysteine pairing not given here; also: fluorescein (FITC) conjugated, position not given here)”, for which the “localisation of peptide in HT29 cells” value is “confined to the cell surface” in assay [1] (4° C.) and “diffuse staining throughout the cells” in assay [1] (37° C.). Also, the “RPM-FITC staining of HT29 cells” value in assay [1] (1 hour at 4° C.) is recorded as “showed fluorescence”. The “RPM-FITC staining of HCT116 cells” value in assay [2] was “little or no fluorescence”. The “binding/staining of human colon tumor sections” value in assay [3] was “preferential binding; also recorded: bright staining”; in assay [3] (listed as FITC-conjugated RPM), “showed binding”. Moreover, the “binding to adjacent normal colon tissue” value in assay [4] is listed as “no binding”. Also, the “labeling of lung and liver cancer and uninvolved lung, liver, stomach” value in assay [5] is recorded as “no labeling”.

Values taken from patent US7452965B2, “Colon tumor specific binding peptides” (University of Utah Research Foundation, priority 2002, dated 2008).
